# Laboratory results published in patent US12371428B2 (Exelixis, Inc., priority 2019, dated 2025).
# Legend:
# [1] = target: Human MER (residues 528-999) (Homo sapiens (Human), UniProt Q12866); assay: Human Mer kinase assay, HTRF KinEase (Example C-2); assay type: biochemical; conditions: protocol of Example C-2 (other compounds)
# Summary of the method: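 Recombinant MER 528-999 (1 ng/well) in buffer with 5 mM MgCl2 and 1 mM DTT was reacted with biotinylated peptide and ATP at Km (40 μM) for 60 min at room temperature. EDTA stop with SA-XL665 and Eu3+ TK antibody, then 665/620 nm HTRF read; IC50 from 4-parameter fit.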
# [2] = target: Mer (phospho-Mer, MERTK-transfected 293A cells) (Homo sapiens (Human), UniProt Q12866); assay: Mer autophosphorylation ELISA in transient transfected 293A cells (Example H); assay type: cell-based; conditions: cellular activity; Mer autophosphorylation ELISA in transient transfected 293A cells
# Mer (phospho-Mer, MERTK-transfected 293A cells), sequence (Q12866 21-999): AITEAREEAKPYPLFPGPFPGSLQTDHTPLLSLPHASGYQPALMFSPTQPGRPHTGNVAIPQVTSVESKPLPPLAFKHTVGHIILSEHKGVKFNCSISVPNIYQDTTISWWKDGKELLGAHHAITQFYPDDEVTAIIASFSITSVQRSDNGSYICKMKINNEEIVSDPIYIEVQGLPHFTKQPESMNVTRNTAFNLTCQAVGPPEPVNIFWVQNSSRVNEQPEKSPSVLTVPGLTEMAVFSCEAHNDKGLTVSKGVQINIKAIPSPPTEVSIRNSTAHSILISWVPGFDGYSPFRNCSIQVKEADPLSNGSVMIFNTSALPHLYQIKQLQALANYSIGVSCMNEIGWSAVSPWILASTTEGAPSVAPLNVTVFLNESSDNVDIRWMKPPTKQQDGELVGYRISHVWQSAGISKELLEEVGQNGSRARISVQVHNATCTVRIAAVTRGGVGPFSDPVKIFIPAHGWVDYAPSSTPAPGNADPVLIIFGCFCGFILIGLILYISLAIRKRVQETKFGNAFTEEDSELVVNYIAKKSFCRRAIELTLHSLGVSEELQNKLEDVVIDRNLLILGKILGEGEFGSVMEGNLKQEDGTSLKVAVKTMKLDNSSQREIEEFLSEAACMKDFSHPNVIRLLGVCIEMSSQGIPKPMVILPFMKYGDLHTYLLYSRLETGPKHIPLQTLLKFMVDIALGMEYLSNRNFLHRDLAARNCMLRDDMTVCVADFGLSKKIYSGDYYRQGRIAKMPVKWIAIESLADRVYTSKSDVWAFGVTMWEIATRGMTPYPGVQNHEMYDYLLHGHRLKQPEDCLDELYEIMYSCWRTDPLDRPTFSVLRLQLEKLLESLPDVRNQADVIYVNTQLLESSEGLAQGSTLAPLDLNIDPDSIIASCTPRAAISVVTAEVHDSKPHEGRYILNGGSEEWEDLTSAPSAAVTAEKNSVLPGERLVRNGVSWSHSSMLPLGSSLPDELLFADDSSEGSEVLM
# Summary of the method: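 IC50 from phospho-Mer ELISA of MERTK-transfected 293A cell lysates after 1 h treatment with serially diluted compound in serum-free medium.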
# [3] = target: Human KDR (residues 790-1356) (Homo sapiens (Human), UniProt P35968); assay: Human KDR kinase assay, HTRF KinEase (Example B-2); assay type: biochemical; conditions: protocol of Example B-2 (other compounds)
# Human KDR (residues 790-1356), sequence (P35968 790-1356): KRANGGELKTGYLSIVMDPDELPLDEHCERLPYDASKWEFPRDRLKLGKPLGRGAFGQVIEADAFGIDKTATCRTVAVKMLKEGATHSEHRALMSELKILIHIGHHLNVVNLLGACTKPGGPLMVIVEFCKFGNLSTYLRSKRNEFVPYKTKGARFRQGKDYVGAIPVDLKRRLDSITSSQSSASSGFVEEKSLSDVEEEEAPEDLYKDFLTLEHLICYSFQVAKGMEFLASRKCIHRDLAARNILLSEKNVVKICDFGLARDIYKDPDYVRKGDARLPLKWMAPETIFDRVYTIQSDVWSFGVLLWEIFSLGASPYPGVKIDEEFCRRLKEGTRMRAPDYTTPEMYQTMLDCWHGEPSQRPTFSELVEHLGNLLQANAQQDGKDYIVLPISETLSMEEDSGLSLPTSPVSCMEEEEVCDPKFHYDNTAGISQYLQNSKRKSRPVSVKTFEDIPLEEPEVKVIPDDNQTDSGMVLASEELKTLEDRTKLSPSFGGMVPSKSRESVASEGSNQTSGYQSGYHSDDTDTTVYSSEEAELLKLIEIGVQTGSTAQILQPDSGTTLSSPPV
# Summary of the method: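 Ten compound concentrations (3% DMSO final) were pre-plated, then KDR (790-1356) with biotinylated peptide in Mg/Mn/DTT buffer was added; ATP at Km (4.0 μM) started a 40 min room-temperature reaction. Detection used Eu-TK antibody and SA-XL665 in EDTA buffer; activity normalized to DMSO and reference inhibitor, IC50 by logistic fit.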
# Human MER (residues 528-999), sequence (Q12866 528-999): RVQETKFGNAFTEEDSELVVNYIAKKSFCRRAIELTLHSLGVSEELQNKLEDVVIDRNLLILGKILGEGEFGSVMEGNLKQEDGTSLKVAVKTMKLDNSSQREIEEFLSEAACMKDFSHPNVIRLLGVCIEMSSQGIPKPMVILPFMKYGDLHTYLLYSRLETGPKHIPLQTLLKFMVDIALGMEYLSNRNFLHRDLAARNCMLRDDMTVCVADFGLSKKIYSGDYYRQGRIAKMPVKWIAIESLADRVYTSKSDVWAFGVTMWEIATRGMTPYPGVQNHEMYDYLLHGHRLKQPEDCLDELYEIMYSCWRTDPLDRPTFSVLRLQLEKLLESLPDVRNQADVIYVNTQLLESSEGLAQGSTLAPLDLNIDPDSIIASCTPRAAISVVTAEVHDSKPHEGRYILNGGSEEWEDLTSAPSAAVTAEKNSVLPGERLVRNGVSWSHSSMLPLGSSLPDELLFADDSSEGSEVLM
SMILES,IC50 [1] [µM],IC50 [2] [µM],IC50 [3] [µM]
"COc1cc2nccc(Oc3ccc(NC(=O)c4ncc(C)n(-c5ccc(F)cc5)c4=O)cc3F)c2nc1OC [Compound 93, N-[4-[(6,7-Dimethoxy-1,5-naphthyridin-4-yl)oxy]-3-fluorophenyl]-4-(4-fluorophenyl)-5-methyl-3-oxopyrazine-2-carboxamide]",< 0.1,< 0.1,< 0.1
"CCn1cc(-c2ccc(F)cc2)c(=O)c(C(=O)Nc2ccc(Oc3ccnc4cc(OC)c(OC)nc34)c(F)c2)c1C [Compound 82, N-[4-[(6,7-Dimethoxy-1,5-naphthyridin-4-yl)oxy]-3-fluorophenyl]-1-ethyl-5-(4-fluorophenyl)-2-methyl-4-oxopyridine-3-carboxamide]",< 0.1,< 0.1,0.1 to 0.3
"COc1cc2nccc(Oc3ccc(NC(=O)c4nn(C)c(C)c(-c5ccc(F)cc5)c4=O)cc3)c2nc1OC [Compound 91, N-[4-[(6,7-Dimethoxy-1,5-naphthyridin-4-yl)oxy]phenyl]-5-(4-fluorophenyl)-1,6-dimethyl-4-oxopyridazine-3-carboxamide]",< 0.1,< 0.1,0.1 to 0.3
"COc1cnc2c(Oc3ccc(NC(=O)c4cnc(C)c(-c5ccc(F)cc5)c4O)cc3F)ccnc2c1 [Compound 64, N-[3-Fluoro-4-[(7-methoxy-1,5-naphthyridin-4-yl)oxy]phenyl]-5-(4-fluorophenyl)-4-hydroxy-6-methylpyridine-3-carboxamide]",< 0.1,< 0.1,< 0.1
"COc1cc2nccc(Oc3ncc(NC(=O)c4cn(-c5cnn(C)c5)cc(-c5ccc(F)cc5)c4=O)cc3F)c2cc1OC [Compound 401, N-[6-(6,7-dimethoxyquinolin-4-yl)oxy-5-fluoropyridin-3-yl]-5-(4-fluorophenyl)-1-(1-methylpyrazol-4-yl)-4-oxopyridine-3-carboxamide]",< 0.1,< 0.1,> 0.3
"COc1cnc2c(Oc3ccc(NC(=O)c4c(C)ncc(-c5ccc(F)cc5)c4O)cc3F)ccnc2c1 [Compound 80, N-[3-Fluoro-4-[(7-methoxy-1,5-naphthyridin-4-yl)oxy]phenyl]-5-(4-fluorophenyl)-4-hydroxy-2-methylpyridine-3-carboxamide]",< 0.1,< 0.1,< 0.1
"COc1cc2nccc(Oc3ccc(NC(=O)c4cnc(CO)c(-c5ccc(F)cc5)c4O)cc3F)c2nc1OC [Compound 71, N-[4-[(6,7-Dimethoxy-1,5-naphthyridin-4-yl)oxy]-3-fluorophenyl]-5-(4-fluorophenyl)-4-hydroxy-6-(hydroxymethyl)pyridine-3-carboxamide]",< 0.1,< 0.1,< 0.1
"COc1cc2nccc(Oc3ccc(NC(=O)c4cn(C(C)(C)C)cc(-c5ccc(F)cc5)c4=O)cc3F)c2nc1OC [Compound 48, 1-tert-Butyl-N-[4-[(6,7-dimethoxy-1,5-naphthyridin-4-yl)oxy]-3-fluorophenyl]-5-(4-fluorophenyl)-4-oxopyridine-3-carboxamide]",< 0.1,< 0.1,> 0.3

# Continued, values first:
IC50 [1] [µM],IC50 [2] [µM],IC50 [3] [µM],SMILES
< 0.1,< 0.1,< 0.1,"COc1cc2nccc(Oc3ccc(NC(=O)c4c5n(cc(-c6ccc(F)cc6)c4=O)CCC5)cc3F)c2cc1OC [Compound 409, N-[4-(6,7-dimethoxyquinolin-4-yl)oxy-3-fluorophenyl]-6-(4-fluorophenyl)-7-oxo-2,3-dihydro-1H-indolizine-8-carboxamide]"
< 0.1,< 0.1,< 0.1,"CNC(=O)c1cc2c(Oc3ccc(NC(=O)c4c5n(cc(-c6ccc(F)cc6)c4=O)CCC5)cc3F)ccnc2cc1OC [Compound 408, 4-[2-fluoro-4-[[6-(4-fluorophenyl)-7-oxo-2,3-dihydro-1H-indolizine-8-carbonyl]amino]phenoxy]-7-methoxy-N-methylquinoline-6-carboxamide]"
< 0.1,< 0.1,> 0.3,"COc1ccc2nccc(Oc3ccc(NC(=O)c4cn(C5CC5)c(C)c(-c5ccc(F)cc5)c4=O)cc3F)c2n1 [Compound 435, 1-cyclopropyl-N-[3-fluoro-4-[(6-methoxy-1,5-naphthyridin-4-yl)oxy]phenyl]-5-(4-fluorophenyl)-6-methyl-4-oxopyridine-3-carboxamide]"
< 0.1,< 0.1,0.1 to 0.3,"COCCOc1nc2c(Oc3ccc(NC(=O)c4cnc(C)c(-c5ccc(F)cc5)c4O)cc3F)ccnc2cc1C [Compound 436, N-[3-fluoro-4-[[6-(2-methoxyethoxy)-7-methyl-1,5-naphthyridin-4-yl]oxy]phenyl]-5-(4-fluorophenyl)-4-hydroxy-6-methylpyridine-3-carboxamide]"
< 0.1,< 0.1,0.1 to 0.3,"Cc1cc(F)ccc1-c1c(C)nc(C)c(C(=O)Nc2ccc(Oc3ccnc4cc(C)c(F)nc34)c(F)c2)c1O [Compound 428, N-[3-fluoro-4-[(6-fluoro-7-methyl-1,5-naphthyridin-4-yl)oxy]phenyl]-5-(4-fluoro-2-methylphenyl)-4-hydroxy-2,6-dimethylpyridine-3-carboxamide]"
< 0.1,< 0.1,< 0.1,"COc1cc2nccc(Oc3ccc(NC(=O)c4cn(C)c(Cl)c(-c5ccc(F)cc5)c4=O)cc3F)c2nc1OC [Compound 412, 6-chloro-N-[4-[(6,7-dimethoxy-1,5-naphthyridin-4-yl)oxy]-3-fluorophenyl]-5-(4-fluorophenyl)-1-methyl-4-oxopyridine-3-carboxamide]"
< 0.1,< 0.1,> 0.3,"COc1cc2nccc(Oc3ccc(NC(=O)c4cn(C5CC5)c(C)c(-c5ccc(F)cc5C)c4=O)cc3)c2nc1OC [Compound 440, 1-cyclopropyl-N-[4-[(6,7-dimethoxy-1,5-naphthyridin-4-yl)oxy]phenyl]-5-(4-fluoro-2-methylphenyl)-6-methyl-4-oxopyridine-3-carboxamide]"
< 0.1,< 0.1,> 0.3,"CCOc1c(-c2ccc(F)cc2)cnc(C)c1C(=O)Nc1ccc(Oc2ccnc3cc(OC)c(OC)nc23)c(F)c1 [Compound 403, N-[4-[(6,7-dimethoxy-1,5-naphthyridin-4-yl)oxy]-3-fluorophenyl]-4-ethoxy-5-(4-fluorophenyl)-2-methylpyridine-3-carboxamide]"
< 0.1,< 0.1,> 0.3,"CCc1cc2nccc(Oc3ccc(NC(=O)c4cnc(C)c(-c5ccc(F)cc5C)c4O)cc3F)c2nc1OC [Compound 421, N-[4-[(7-ethyl-6-methoxy-1,5-naphthyridin-4-yl)oxy]-3-fluorophenyl]-5-(4-fluoro-2-methylphenyl)-4-hydroxy-6-methylpyridine-3-carboxamide]"
